According to US20180303101A1, “METHOD OF IMPROVING GRASS QUALITY” (priority 2004, published 2018):

Key:
Format in all cases: in vivo
[1] = system: Penncross creeping bentgrass; experiment: Chlorophyll content at high temperature treatment (Example 1)
Excerpt: (§1) The following test methods were used to compare the effectiveness of a phthalocyanine composition according to the invention with known compositions. The following compositions were used in the experiments: Pigment Green 7 obtained from Sun Chemical Corporation as the water-dispersible product SUN T-64-1660 (containing 45 to 55 wt. % of Pigment Green 7) was used alone. A mixture of Pigment Green 7 and fosetyl-al was used as the commercially available product Chipco® Signature™ fungicide from Bayer Environmental Science, Montvale, N.J. The compound fosetyl-al was used as Chipco® Aliette® WDG fungicide available from Bayer Environmental Science, Montvale N.J.
Seeds of “Penncross” creeping bentgrass were sown in polyvinyl chloride (PVC) tubes (10 cm in diameter and 20 cm in length) filled with coarse sand. […]
Chlorophyll and carotenoids were extracted by soaking 50 mg fresh shoots in 20 ml dimethyl sulfoxide (DMSO) in the dark for 72 hours. Absorbance of each extractant at 663 nm, 645 nm, and 470 nm was used to determine chlorophyll content using the formula of Arnon (1949) and carotenoids content using the formula of Lichtenthaler and Wellburn (1983) Canopy photochemical efficiency was estimated by measuring chlorophyll fluorescence (Fv/Fm) using plant photosynthesis efficiency analyzer (available from ADC Bioscientific Limited, Herts, England).

[2] = system: Penncross creeping bentgrass; experiment: Shoot growth rate in canopy height at high temperature treatment (Example 1); conditions: plants with and without pretreatment
Excerpt: as §1
(§2) Seeds of “Penncross” creeping bentgrass were sown in polyvinyl chloride (PVC) tubes (10 cm in diameter and 20 cm in length) filled with coarse sand. Plants were kept in a growth chamber for 90 days before treatment stated to allow root and canopy establishment. The daily temperature in the growth chamber was 20/16° C., the photosynthetic photon flux density was 400 μmol m−2 s−1, and the photoperiod was 12 hours/day. Turf was mowed twice weekly at 4 mm with scissors, irrigated every other day until there was free drainage from the bottom of tubes, and fertilized weekly with 40 ml full-strength Hoagland's nutrient solution (Hoagland and Arnon, 1950). Insecticide was applied to kill whitefly when necessary. […]

[3] = system: Penncross creeping bentgrass; experiment: Tiller density at high temperature treatment (Example 1)
Excerpt: as §1, §2

[4] = system: Penncross creeping bentgrass; experiment: Influence of foliar applied phthalocyanine pigment on creeping bentgrass photosynthesis (Example 9)
Procedure: Studies carried out as a follow-up to Example 1 were conducted in 2005 to determine the influence of foliar applied phthalocyanine pigment on creeping bentgrass photosynthesis.
“Penncross” creeping bentgrass plants were grown in a growth chamber on a sand soil in PVC tubes (10 cm in diameter) maintained at 20° C. Plants were maintained at a canopy height of approximately 5 cm and a nutrient solution was applied weekly to maintain adequate fertility. Four plants were treated with Pigment Green 7 at a rate of 6.92 g/1000 sq. ft. (0.74 kg/ha) (with 0.6% Tween 20 being added to keep the pigment on the leaves for better absorption) and four plants were left untreated to serve as the controls (being sprayed with water only). Photochemical efficiency, chlorophyll content, and single leaf net photosynthesis were measured at one, three, seven, and fourteen days after application. Different light intensities of 1500, 750, 500, 250, 150, 50, and 0 μmol m−2 s−1 of photosynthetically active radiation (PAR, 400-700 nm) were generated inside the leaf chamber by an LED light source to generate a light response curve. Net photosynthesis was measured as the rate of CO2 uptake φmol m−2s−1). […] Photosynthesis was higher from the first day after application and all subsequent sampling dates. […] However at intensities of from 50 to 1500 μmol photons m−2 s−1 treated plants were more efficient in utilizing the constant amount of light produced in the leaf chamber.

[5] = system: Corn; experiment: Glasshouse study, soil drench applications of pigment on corn growth and photosynthesis (Example 10); conditions: for Chlorophyl: CM1000 meter readings; for Total height (avg, cm): soil to youngest fully expanded leaf tip; for Distance between collars (avg, cm): two top collars; for Net photosynthesis: youngest fully collared leaf
Procedure: A glasshouse study was conducted to determine the effect of soil drench applications of phthalocyanine pigment on corn growth and photosynthesis.
Corn was grown from seed in 6 inch (15 cm) pots in a potting soil mix. Pigment Green 7 was diluted in water in the four amounts per gallon (3.8 liter) of water indicated in the Table and applied directly to the soil. Treatments were initiated in March when corn was at the three leaf stage. Approximately 250 ml of the aqueous pigment mixture was applied to the soil on day 0 and day 6. On day 21 plants were placed in trays containing the pigment Water was maintained in the trays as needed to replenished evapotranspiration.
Net photosynthesis of the youngest fully collared leaf (i.e., leaf 7) was measured using a LiCor 6400 instrument as μmol m−2s−1 of CO2. Leaf chlorophyll measurements were made using a CM1000 leaf […] meter (Spectrum Technologies). Plant height, stem diameter, and leaf width were also measured at the end of the conclusion of the study.

[6] = 20° C., 6.92 g/1000 sq. ft. with 0.6% Tween 20, 1, 3, 7, 14 days after application

## Pigment Green 7
[1]; plants with pretreatment
  Chlorophyll content (fresh weight basis): highest
[1]; plants without pretreatment
  Chlorophyll content (fresh weight basis): higher with application of Signature fungicide and Pigment Green 7 than with application of Aliette fungicide
[2]
  Shoot growth rate in canopy height: higher with application of Signature fungicide and Pigment Green 7 than with application of Aliette fungicide and water
[3]
  Tiller density, difference among applications: no significant difference
[4]; 6.92 g/1000 sq. ft. foliar application
  Light compensation point: unaltered by treatment
[4]; [6]
  Photochemical efficiency (Fv/Fm), treated versus control plants: No differences
  Total chlorophyll per gram of tissue, treated versus control plants: no statistically significant differences
[4]; all light intensities greater than 50 μmol photons m−2 s−1, 6.92 g/1000 sq. ft., from first day and all subsequent sampling dates
  Single leaf net photosynthesis (rate of CO2 uptake), treated versus control plants: higher for treated plants compared to controls
[4]; on bentgrass leaves, 6.92 g/1000 sq. ft.
  Stability after foliar application (from higher net photosynthesis on every date): stable for at least fourteen days after foliar application
[5]; pigment concentration 1 g/gal
  Height soil to collar (avg, cm): 58 cm
  Leaf width (avg, cm): 5.2 cm
  Stem diameter (avg, cm): 1.04 cm
  Chlorophyl: 141
  Total height (avg, cm): 145 cm
  Distance between collars (avg, cm): 4.9 cm
  Net photosynthesis: 13.0 μmol m−2s−1 of CO2
[5]; pigment concentration 8 g/gal
  Height soil to collar (avg, cm): 59 cm
  Leaf width (avg, cm): 5.6 cm
  Stem diameter (avg, cm): 0.99 cm
  Chlorophyl: 122
  Total height (avg, cm): 148 cm
  Distance between collars (avg, cm): 5.5 cm
  Net photosynthesis: 12.8 μmol m−2s−1 of CO2
[5]; pigment concentration 16 g/gal
  Height soil to collar (avg, cm): 55 cm
  Leaf width (avg, cm): 5.2 cm
  Stem diameter (avg, cm): 1.01 cm
  Chlorophyl: 115
  Total height (avg, cm): 137 cm
  Distance between collars (avg, cm): 5.7 cm
  Net photosynthesis: 13.6 μmol m−2s−1 of CO2
[5]; pigment concentration 32 g/gal
  Height soil to collar (avg, cm): 54 cm
  Leaf width (avg, cm): 5.6 cm
  Stem diameter (avg, cm): 1.00 cm
  Chlorophyl: 132
  Total height (avg, cm): 132 cm
  Distance between collars (avg, cm): 6.0 cm
  Net photosynthesis: 13.3 μmol m−2s−1 of CO2
